Results as given in patent publication US20250223268A1, “4-Methylsulfonylbenzamide Compound, Preparation Method, Herbicidal Composition And Use” (Jiangsu Flag Chemical Industry Co., Ltd., priority 2022, published 2025).

Assays:
Assay in all cases: Greenhouse herbicidal activity assay, post-emergence
Format in all cases: in vivo
Cyperus iria = details: Post-emergence test, rate 150 g a.i./hm^2, grade by fresh weight inhibition rate; for pest or weed control at 150 g/ha: Cyperus iria, read-out: Control efficacy grade, Cyperus iria
How it was run: (§1)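 Letter grades (A: ≥80% to 100%; C: ≥40% to <60%; E: <20%) express fresh weight inhibition recorded 14-21 days post-spray. Weeds were treated on the leaves once they reached 3-6 leaves in chamber-grown pots, allowed to dry naturally, then kept in the chamber.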

Digitaria sanguinalis = details: Post-emergence test, rate 150 g a.i./hm^2, grade by fresh weight inhibition rate; for pest or weed control at 150 g/ha: Digitaria sanguinalis, read-out: Control efficacy grade, Digitaria sanguinalis
How it was run: as §1

Leptochloa chinensis = details: Post-emergence test, rate 150 g a.i./hm^2, grade by fresh weight inhibition rate; for pest or weed control at 150 g/ha: Dinebra chinensis, read-out: Control efficacy grade, Leptochloa chinensis
How it was run: as §1

Eclipta prostrata = details: Post-emergence test, rate 150 g a.i./hm^2, grade by fresh weight inhibition rate; for pest or weed control at 150 g/ha: Eclipta prostrata, read-out: Control efficacy grade, Eclipta prostrata
How it was run: as §1

Echinochloa crusgalli = details: Post-emergence test, rate 150 g a.i./hm^2, grade by fresh weight inhibition rate; for pest or weed control at 150 g/ha: Echinochloa crus-galli, read-out: Control efficacy grade, Echinochloa crusgalli
How it was run: as §1

Cn1nnnc1NC(=O)c1ccc(S(C)(=O)=O)c(S(=O)(=O)CC(F)(F)F)c1Cl [Compound 1-56] was tested, and the “Control efficacy grade, Cyperus iria” value (Cyperus iria) was “A (Fresh weight inhibition rate≥80% to 100%)”, the “Control efficacy grade, Digitaria sanguinalis” value (Digitaria sanguinalis) was “A (Fresh weight inhibition rate≥80% to 100%)” and the “Control efficacy grade, Leptochloa chinensis” value (Leptochloa chinensis) was “A (Fresh weight inhibition rate≥80% to 100%)”. For the same compound, the “Control efficacy grade, Eclipta prostrata” value (Eclipta prostrata) was “A (Fresh weight inhibition rate≥80% to 100%)” and the “Control efficacy grade, Echinochloa crusgalli” value (Echinochloa crusgalli) was “A (Fresh weight inhibition rate≥80% to 100%)”.
In the case of C=C(C)CSc1c(S(C)(=O)=O)ccc(C(=O)Nc2nnc(C)o2)c1Cl [Compound 3-142], the “Control efficacy grade, Cyperus iria” value (Cyperus iria) is reported as “A (Fresh weight inhibition rate≥80% to 100%)”, the “Control efficacy grade, Digitaria sanguinalis” value (Digitaria sanguinalis) is reported as “A (Fresh weight inhibition rate≥80% to 100%)” and the “Control efficacy grade, Leptochloa chinensis” value (Leptochloa chinensis) is reported as “A (Fresh weight inhibition rate≥80% to 100%)”. The “Control efficacy grade, Eclipta prostrata” value (Eclipta prostrata) was “A (Fresh weight inhibition rate≥80% to 100%)” and the “Control efficacy grade, Echinochloa crusgalli” value (Echinochloa crusgalli) was “A (Fresh weight inhibition rate≥80% to 100%)”.
With Cn1ncnc1NC(=O)c1ccc(S(C)(=O)=O)c(SCC2CC2)c1Cl [Compound 2-27] the “Control efficacy grade, Cyperus iria” value (Cyperus iria) was “A (Fresh weight inhibition rate≥80% to 100%)”, the “Control efficacy grade, Digitaria sanguinalis” value (Digitaria sanguinalis) was “A (Fresh weight inhibition rate≥80% to 100%)” and the “Control efficacy grade, Leptochloa chinensis” value (Leptochloa chinensis) was “A (Fresh weight inhibition rate≥80% to 100%)”. The “Control efficacy grade, Eclipta prostrata” value (Eclipta prostrata) was “A (Fresh weight inhibition rate≥80% to 100%)” and the “Control efficacy grade, Echinochloa crusgalli” value (Echinochloa crusgalli) was “A (Fresh weight inhibition rate≥80% to 100%)”.
Cn1nnnc1NC(=O)c1ccc(S(C)(=O)=O)c([S+]([O-])CC#N)c1Cl (racemic) [Compound 1-63] was tested, and the “Control efficacy grade, Cyperus iria” value (Cyperus iria) was “A (Fresh weight inhibition rate≥80% to 100%)”, the “Control efficacy grade, Digitaria sanguinalis” value (Digitaria sanguinalis) was “B (Fresh weight inhibition rate≥260% to <80%)” and the “Control efficacy grade, Leptochloa chinensis” value (Leptochloa chinensis) was “A (Fresh weight inhibition rate≥80% to 100%)”. The “Control efficacy grade, Eclipta prostrata” value (Eclipta prostrata) was “A (Fresh weight inhibition rate≥80% to 100%)” and the “Control efficacy grade, Echinochloa crusgalli” value (Echinochloa crusgalli) was “A (Fresh weight inhibition rate≥80% to 100%)”.
CC(C)[S+]([O-])c1c(S(C)(=O)=O)ccc(C(=O)Nc2nnnn2C)c1Cl (racemic) [Compound 1-7] was tested, and the “Control efficacy grade, Cyperus iria” value (Cyperus iria) was “A (Fresh weight inhibition rate≥80% to 100%)”, the “Control efficacy grade, Digitaria sanguinalis” value (Digitaria sanguinalis) was “A (Fresh weight inhibition rate≥80% to 100%)” and the “Control efficacy grade, Leptochloa chinensis” value (Leptochloa chinensis) was “A (Fresh weight inhibition rate≥80% to 100%)”. The “Control efficacy grade, Eclipta prostrata” value (Eclipta prostrata) was “A (Fresh weight inhibition rate≥80% to 100%)” and the “Control efficacy grade, Echinochloa crusgalli” value (Echinochloa crusgalli) was “A (Fresh weight inhibition rate≥80% to 100%)”.
With CCc1nnc(NC(=O)c2ccc(S(C)(=O)=O)c([S+]([O-])CCCl)c2Cl)o1 (racemic) [Compound 3-495] the “Control efficacy grade, Cyperus iria” value (Cyperus iria) was “A (Fresh weight inhibition rate≥80% to 100%)”, the “Control efficacy grade, Digitaria sanguinalis” value (Digitaria sanguinalis) was “A (Fresh weight inhibition rate≥80% to 100%)” and the “Control efficacy grade, Leptochloa chinensis” value (Leptochloa chinensis) was “A (Fresh weight inhibition rate≥80% to 100%)”. For the same compound, the “Control efficacy grade, Eclipta prostrata” value (Eclipta prostrata) was “A (Fresh weight inhibition rate≥80% to 100%)” and the “Control efficacy grade, Echinochloa crusgalli” value (Echinochloa crusgalli) was “A (Fresh weight inhibition rate≥80% to 100%)”.
For Cc1nonc1NC(=O)c1ccc(S(C)(=O)=O)c([S+]([O-])C2CC2)c1Cl (racemic) [Compound 4-38], the “Control efficacy grade, Cyperus iria” value (Cyperus iria) was “A (Fresh weight inhibition rate≥80% to 100%)”, the “Control efficacy grade, Digitaria sanguinalis” value (Digitaria sanguinalis) was “A (Fresh weight inhibition rate≥80% to 100%)” and the “Control efficacy grade, Leptochloa chinensis” value (Leptochloa chinensis) was “A (Fresh weight inhibition rate≥80% to 100%)”. For the same compound, the “Control efficacy grade, Eclipta prostrata” value (Eclipta prostrata) was “A (Fresh weight inhibition rate≥80% to 100%)” and the “Control efficacy grade, Echinochloa crusgalli” value (Echinochloa crusgalli) was “A (Fresh weight inhibition rate≥80% to 100%)”.
With CCC[S+]([O-])c1c(S(C)(=O)=O)ccc(C(=O)Nc2nnnn2C)c1Cl (racemic) [Compound 1-2, 2-chloro-N-(1-methyl-1H-tetrazol-5-yl)-4-(methylsulfonyl)-3-(propylsulfinyl)benzamide] the pest or weed control at 150 g/ha (Cyperus iria) was 80 to 100%, the pest or weed control at 150 g/ha (Digitaria sanguinalis) was 80 to 100% and the pest or weed control at 150 g/ha (Leptochloa chinensis) was 80 to 100%. For the same compound, the pest or weed control at 150 g/ha (Eclipta prostrata) was 80 to 100% and the pest or weed control at 150 g/ha (Echinochloa crusgalli) was 80 to 100%.
With Cc1nnc(NC(=O)c2ccc(S(C)(=O)=O)c(SCC3CC3)c2Cl)o1 [Compound 3-37] the “Control efficacy grade, Cyperus iria” value (Cyperus iria) was “A (Fresh weight inhibition rate≥80% to 100%)”, the “Control efficacy grade, Digitaria sanguinalis” value (Digitaria sanguinalis) was “A (Fresh weight inhibition rate≥80% to 100%)” and the “Control efficacy grade, Leptochloa chinensis” value (Leptochloa chinensis) was “A (Fresh weight inhibition rate≥80% to 100%)”. The “Control efficacy grade, Eclipta prostrata” value (Eclipta prostrata) was “A (Fresh weight inhibition rate≥80% to 100%)” and the “Control efficacy grade, Echinochloa crusgalli” value (Echinochloa crusgalli) was “A (Fresh weight inhibition rate≥80% to 100%)”.
With C=CCSc1c(S(C)(=O)=O)ccc(C(=O)Nc2nnco2)c1Cl [Compound 3-338] the “Control efficacy grade, Cyperus iria” value (Cyperus iria) was “A (Fresh weight inhibition rate≥80% to 100%)”, the “Control efficacy grade, Digitaria sanguinalis” value (Digitaria sanguinalis) was “C (Fresh weight inhibition rate≥40% to <60%)” and the “Control efficacy grade, Leptochloa chinensis” value (Leptochloa chinensis) was “A (Fresh weight inhibition rate≥80% to 100%)”. For the same compound, the “Control efficacy grade, Eclipta prostrata” value (Eclipta prostrata) was “A (Fresh weight inhibition rate≥80% to 100%)” and the “Control efficacy grade, Echinochloa crusgalli” value (Echinochloa crusgalli) was “A (Fresh weight inhibition rate≥80% to 100%)”.
In the case of Cn1nnnc1NC(=O)c1ccc(S(C)(=O)=O)c(SC2CC2)c1Cl [Compound 1-32], the “Control efficacy grade, Cyperus iria” value (Cyperus iria) is reported as “A (Fresh weight inhibition rate≥80% to 100%)”, the “Control efficacy grade, Digitaria sanguinalis” value (Digitaria sanguinalis) is reported as “A (Fresh weight inhibition rate≥80% to 100%)” and the “Control efficacy grade, Leptochloa chinensis” value (Leptochloa chinensis) is reported as “A (Fresh weight inhibition rate≥80% to 100%)”. For the same compound, the “Control efficacy grade, Eclipta prostrata” value (Eclipta prostrata) was “A (Fresh weight inhibition rate≥80% to 100%)” and the “Control efficacy grade, Echinochloa crusgalli” value (Echinochloa crusgalli) was “A (Fresh weight inhibition rate≥80% to 100%)”.
CS(=O)(=O)c1ccc(C(=O)Nc2nnco2)c(Cl)c1[S+]([O-])C1CCC1 (racemic) [Compound 3-309] was tested, and the “Control efficacy grade, Cyperus iria” value (Cyperus iria) was “A (Fresh weight inhibition rate≥80% to 100%)”, the “Control efficacy grade, Digitaria sanguinalis” value (Digitaria sanguinalis) was “A (Fresh weight inhibition rate≥80% to 100%)” and the “Control efficacy grade, Leptochloa chinensis” value (Leptochloa chinensis) was “A (Fresh weight inhibition rate≥80% to 100%)”. The “Control efficacy grade, Eclipta prostrata” value (Eclipta prostrata) was “A (Fresh weight inhibition rate≥80% to 100%)” and the “Control efficacy grade, Echinochloa crusgalli” value (Echinochloa crusgalli) was “A (Fresh weight inhibition rate≥80% to 100%)”.
With Cn1ncnc1NC(=O)c1ccc(S(C)(=O)=O)c([S+]([O-])C2CC2)c1Cl (racemic) [Compound 2-33] the “Control efficacy grade, Cyperus iria” value (Cyperus iria) was “A (Fresh weight inhibition rate≥80% to 100%)”, the “Control efficacy grade, Digitaria sanguinalis” value (Digitaria sanguinalis) was “A (Fresh weight inhibition rate≥80% to 100%)” and the “Control efficacy grade, Leptochloa chinensis” value (Leptochloa chinensis) was “A (Fresh weight inhibition rate≥80% to 100%)”. The “Control efficacy grade, Eclipta prostrata” value (Eclipta prostrata) was “A (Fresh weight inhibition rate≥80% to 100%)” and the “Control efficacy grade, Echinochloa crusgalli” value (Echinochloa crusgalli) was “A (Fresh weight inhibition rate≥80% to 100%)”.
For C=CC[S+]([O-])c1c(S(C)(=O)=O)ccc(C(=O)Nc2ncnn2C)c1Cl (racemic) [Compound 2-68], the “Control efficacy grade, Cyperus iria” value (Cyperus iria) was “A (Fresh weight inhibition rate≥80% to 100%)”, the “Control efficacy grade, Digitaria sanguinalis” value (Digitaria sanguinalis) was “A (Fresh weight inhibition rate≥80% to 100%)” and the “Control efficacy grade, Leptochloa chinensis” value (Leptochloa chinensis) was “A (Fresh weight inhibition rate≥80% to 100%)”. For the same compound, the “Control efficacy grade, Eclipta prostrata” value (Eclipta prostrata) was “A (Fresh weight inhibition rate≥80% to 100%)” and the “Control efficacy grade, Echinochloa crusgalli” value (Echinochloa crusgalli) was “A (Fresh weight inhibition rate≥80% to 100%)”.
Compound CCC[S+]([O-])c1c(S(C)(=O)=O)ccc(C(=O)Nc2nnc(C(C)C)o2)c1Cl (stereo not drawn) [Compound 3-500, 2-chloro-N-(5-isopropyl-1,3,4-oxadiazol-2-yl)-4-(methylsulfonyl)-3-(propylsulfinyl)benzamide] has a pest or weed control at 150 g/ha (Cyperus iria) of 80 to 100%, a pest or weed control at 150 g/ha (Digitaria sanguinalis) of 80 to 100% and a pest or weed control at 150 g/ha (Leptochloa chinensis) of 80 to 100%. It also gave a pest or weed control at 150 g/ha (Eclipta prostrata) of 80 to 100% and a pest or weed control at 150 g/ha (Echinochloa crusgalli) of 80 to 100%.
